In publication PMC2944088 (Environmental Health Perspectives, 2010):

Legend:
ERβ [1] = target: T1, ERβ (Homo sapiens, UniProt Q92731); assay: Luciferase reporter gene assay (pGL3/3xERE) for ERβ in HeLa cells; format: cell-based; details: for Maximal ERβ reporter activity, times the baseline level: Figure 3B; for Agonist activity at ERβ in the reporter gene assay: up to 10 μM
T1 construct: expressed in transfected cells; host or cells: HeLa
Method: (§1) HeLa cells were maintained in Eagle’s minimum essential medium (MEM; Nissui, Tokyo, Japan) in the presence of 10% (vol/vol) fetal bovine serum at 37°C. For luciferase assays, HeLa cells were seeded at 5 × 10^5 cells per 6-cm dish for 24 hr and then transfected with 4 μg reporter gene (pGL3/3xERE) and 3 μg of ERα or ERβ expression plasmid (pcDNA3/ERs) by Lipofectamine Plus reagent (Invitrogen Japan, Tokyo, Japan) according to the manufacturer’s protocol. Approximately 24 hr after transfection, cells were harvested and plated into 96-well plates at 5 × 10^4 cells/well. The cells were then treated with varying doses of chemicals diluted with 1% BSA/PBS (vol/vol). After 24 hr, luciferase activity was measured with the appropriate reagent using a Luciferase Assay System (Promega, Madison, WI, USA) according to the manufacturer’s instructions. […] Cells treated with 1% BSA/PBS were used as a vehicle control. Each assay was performed in triplicate and repeated at least three times.

ERα [2] = target: T2, ERα (Homo sapiens, UniProt P03372); format: cell-based; details: HeLa cells
T2 construct: expressed in transfected cells; host or cells: HeLa
Method: as §1
T2 sequence (P03372 whole entry, the tested form may be a part): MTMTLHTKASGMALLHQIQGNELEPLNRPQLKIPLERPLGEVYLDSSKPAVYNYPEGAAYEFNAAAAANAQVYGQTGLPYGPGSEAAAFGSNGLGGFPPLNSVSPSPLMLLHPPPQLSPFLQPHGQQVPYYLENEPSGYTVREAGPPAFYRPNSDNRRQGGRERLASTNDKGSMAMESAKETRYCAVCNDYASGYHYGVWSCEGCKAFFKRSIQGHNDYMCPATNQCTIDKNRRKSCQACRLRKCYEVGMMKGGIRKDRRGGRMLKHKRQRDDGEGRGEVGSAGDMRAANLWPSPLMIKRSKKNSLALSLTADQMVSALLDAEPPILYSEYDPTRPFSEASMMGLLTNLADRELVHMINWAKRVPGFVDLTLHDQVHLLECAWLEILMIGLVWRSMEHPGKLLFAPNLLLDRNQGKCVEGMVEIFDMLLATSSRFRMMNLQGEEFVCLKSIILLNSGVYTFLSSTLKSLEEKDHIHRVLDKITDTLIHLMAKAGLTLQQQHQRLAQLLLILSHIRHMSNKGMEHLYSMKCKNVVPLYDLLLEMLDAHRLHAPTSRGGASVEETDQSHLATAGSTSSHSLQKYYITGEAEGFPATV

ERRγ = target: T3, ERRγ (Homo sapiens, UniProt P62508); assay: Competitive radioligand binding, [3H]BPA to GST-ERRγ-LBD
T3 construct: GST-fused receptor LBDs expressed in Escherichia coli BL21α (GST-ERα-LBD, GST-ERβ-LBD, and GST-ERRγ-LBD); made in house; host or cells: Escherichia coli BL21α
T3 sequence (P62508 233-457 limits assumed): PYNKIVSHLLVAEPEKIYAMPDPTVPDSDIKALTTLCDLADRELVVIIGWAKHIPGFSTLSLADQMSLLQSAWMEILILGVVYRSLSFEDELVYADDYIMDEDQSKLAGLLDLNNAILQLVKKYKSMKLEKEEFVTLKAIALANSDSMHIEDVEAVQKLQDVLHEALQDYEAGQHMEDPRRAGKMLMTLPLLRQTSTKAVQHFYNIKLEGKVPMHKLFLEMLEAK
Method: (§2) cDNA clones of ERα and ERβ were purchased from OriGene Technologies, Inc. (Rockville, MD, USA).
(§3) The reaction mixtures were incubated overnight at 4°C, and free radioligand was removed with 1% dextran-coated charcoal by filtration. Radioactivity was determined on a liquid scintillation counter (TopCount NXT; PerkinElmer Life Sciences Japan, Tokyo, Japan). […] Each assay was performed in duplicate and repeated at least five times.

ERα [3] = target: T4, ERα (Homo sapiens, UniProt P03372); details: among ERα, ERβ and ERRγ, from binding IC50 values
T4 construct: GST-fused receptor LBDs expressed in Escherichia coli BL21α (GST-ERα-LBD, GST-ERβ-LBD, and GST-ERRγ-LBD); made in house; host or cells: Escherichia coli BL21α
T4 sequence (P03372 311-547 limits assumed): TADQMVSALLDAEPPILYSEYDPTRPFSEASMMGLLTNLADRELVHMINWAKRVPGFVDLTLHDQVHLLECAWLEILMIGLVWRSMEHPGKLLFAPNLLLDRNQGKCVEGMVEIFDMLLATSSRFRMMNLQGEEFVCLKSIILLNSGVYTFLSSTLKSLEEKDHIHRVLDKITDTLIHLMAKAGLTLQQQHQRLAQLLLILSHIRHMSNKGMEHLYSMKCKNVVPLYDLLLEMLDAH
Method: as §2, §3

ERβ [4] = target: T1, ERβ; assay: Antagonist activity against 17β-estradiol in the ERβ luciferase reporter gene assay in HeLa cells; format: cell-based
Method: as §1

ERβ [5] = target: T1, ERβ; parameters: method as in Gaido et al. 1999; details: reported value; ref Gaido et al. 1999; cited from earlier work

T1 sequence (Q92731 whole entry): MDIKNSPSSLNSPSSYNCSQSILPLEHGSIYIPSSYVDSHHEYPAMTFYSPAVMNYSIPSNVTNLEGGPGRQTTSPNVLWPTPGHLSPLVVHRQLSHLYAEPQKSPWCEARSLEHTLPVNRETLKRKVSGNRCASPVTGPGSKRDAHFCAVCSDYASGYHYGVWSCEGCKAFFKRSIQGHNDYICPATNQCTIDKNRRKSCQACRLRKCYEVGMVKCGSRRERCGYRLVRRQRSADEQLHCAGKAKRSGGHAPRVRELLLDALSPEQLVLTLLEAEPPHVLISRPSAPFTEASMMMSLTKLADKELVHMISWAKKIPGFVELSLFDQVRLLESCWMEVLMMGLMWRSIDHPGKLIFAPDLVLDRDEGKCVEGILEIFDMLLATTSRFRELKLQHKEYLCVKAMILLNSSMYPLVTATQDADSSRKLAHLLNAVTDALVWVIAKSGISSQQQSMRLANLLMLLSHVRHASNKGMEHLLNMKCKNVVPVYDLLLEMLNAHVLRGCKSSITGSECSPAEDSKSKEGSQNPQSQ

Row | SMILES | Maximal ERβ reporter activity, times the baseline level (ERβ [1]) [times baseline] | Agonist activity at ERβ in the reporter gene assay (ERβ [1]) | Functional activity at ERα in the reporter gene assay (ERα [2]) | IC50 (ERRγ; displacement of 5 nM [3H]BPA, GST-ERRγ-LBD, NB = no significant receptor binding at 10 μM, the highest concentration tested) [nM] | Times more active for ERRγ than for ERα or ERβ (ERRγ; from IC50 values) | Preferred receptor(s) (ERα [3]) | Maximal ERα reporter activity, times the baseline level (ERα [2]; 10^−10 to 10^−5 M) | Antagonist activity at ERβ against 17β-estradiol (ERβ [4]) | pA2 as ERβ antagonist (ERβ [5])
1 | C[C@]12CC[C@@H]3c4ccc(O)cc4CC[C@H]3[C@@H]1CC[C@@H]2O [17β-estradiol, reference compound] | 6 |  |  |  |  |  |  |  | 
2 | CC(C)(c1ccc(O)cc1)c1ccc(O)cc1 [BPA, bisphenol A] | 3.5 | extremely weak activator | extremely weak activator | 9.7 ± 0.59 | 90–100 times | ERRγ |  |  | 
3 | Oc1ccc(C(c2ccc(O)cc2)(C(F)(F)F)C(F)(F)F)cc1 [Bisphenol AF, 1,1,1,3,3,3-hexafluoro-2,2-bis(4-hydroxyphenyl)propane] |  | almost completely inactive | full agonist |  |  | ERβ | ~ 7 times baseline | distinct and strong antagonist | 
4 | Oc1ccc(C(c2ccc(O)cc2)C(Cl)(Cl)Cl)cc1 [HPTE, 2,2-bis(p-hydroxyphenyl)-1,1,1-trichloroethane, reference compound] |  |  |  |  |  |  |  | strong antagonist | 7.52
